Reference: patent US11759451B2, “Therapeutic potential of glycopyrrolate and mexiletine for nervous system injury” (City University of Hong Kong, priority 2020, dated 2023)
Entries after “also recorded” stand apart in the source; their conditions may differ.

Key:
[1] = system: axotomized dorsal root ganglion (DRG) neurons; assay: neurite outgrowth assay in primary cultures of axotomized DRG neurons; format: cell-based, adult C57BL/6 mice; conditions: vs 0.1% DMSO solvent control; for average total neurite length (neurite outgrowth): glycopyrrolate 5, 10 and 100 μM or mexiletine 10, 50 and 100 μM added 1 h after plating, 17 h growth; for cell survival of DRG neurons: same cultures, 17 h
Method: Primary cultures of DRG neurons were prepared from adult C57BL/6 mice, and plated onto a poly-D-lysine and laminin-coated 8-well chamber. Glycopyrrolate and mexiletine were added into the cultured DRG neurons at various concentrations as indicated one hour after plating. 0.1% DMSO served as solvent control. The cultures were allowed to grow for 17 h. After fixation, the DRG neurons were immunostained with anti-βIII-tubulin primary antibodies highlighting the cell bodies of DRG neurons and their adjacent neurites for neurite outgrowth assay. (A) Average total neurite length was quantified using automated WIS-NeuroMath 5 software. […] Scale bar: 500 μm.
In the current study, the intrinsic growth capacity of peripheral neurons was first assessed, which is a critical determinant for successful axon regeneration after injury, after treating the neurons with glycopyrrolate and mexiletine. Primary culture of adult dorsal root ganglion (DRG) neurons is a widely used in vitro models to assess cues that could promote axonal outgrowth. Primary DRG neurons were prepared from adult C57BL/6 mice (8-12 weeks old). DRG neurons were dissected out, mildly digested with a solution of collagenase and dispase II (Roche Diagnostics), trypsinized and mechanically dissociated into single cell suspension using flame-polished Pasteur pipettes with three different diameters. Two thousand DRG neurons were plated onto an 8-well chamber slide pre-coated with poly-D-lysine and laminin (Sigma Aldrich), and cultured in full Neurobasal medium (Gibco) supplemented with B27, 200 mM L-glutamine, penicillin-streptomycin, 50 ng/ml NGF (Gibco), 10 μM Ara-C and 2 ng/ml GDNF (Gibco). Glycopyrrolate (5, 10 and 100 μM) or mexiletine (10, 50 and 100 μM) was added into the cultured neurons 1 hour after plating, and the cultures were allowed to grow for 17 hours.
After 17 hours of incubation, the cultures were fixed with 4% paraformaldehyde (PFA), blocked with 0.5% bovine serum albumin (BSA)/0.1% Triton X-100 in PBS for 1 hour at room temperature, and incubated with anti-β III-tubulin primary antibodies (1:800, Sigma Aldrich) for overnight at 4° C. After washing with PBS, the cultures were incubated with Alexa Fluor 488-conjugated secondary antibodies (1:300, Molecular Probes) for 1 hour at room temperature. To assess the neurite outgrowth of axtomized DRG neurons after treatment of glycopyrrolate or mexiletine, 30 non-overlapping images were taken at 10× magnifications using Nikon Ni-E microscope equipped with a motorized stage. Total neurite length of individual DRG neurons from each treatment condition were measured by automated WIS-NeuroMath software (Weizmann Institute of Science). The total neurite length of the neurons was averaged from at least 250 neurons per condition. […]

[2] = system: sciatic nerve crush injury; assay: sciatic nerve pinch test after sciatic nerve crush injury; format: in vivo, adult male C57BL/6 mice; conditions: for increase of the most distal axonal regrowth (sciatic nerve pinch test): i.p. glycopyrrolate 2 mg/kg or mexiletine 10 mg/kg for 3 consecutive days after injury, 72 hours after crush, n=5-6 per group; for in vivo axon regeneration after sciatic nerve crush injury (pinch test), in words: i.p. glycopyrrolate 2 mg/kg or mexiletine 10 mg/kg, 3 days after injury
Method: (§1) (A) Experimental paradigm for sciatic nerve pinch test. Sciatic nerve crush injury was performed on the left sciatic nerve of adult male C57BL/6 mice. We performed nerve pinch test in adult mice injected intraperitoneally with glycopyrrolate (2 mg/kg) or mexiletine (10 mg/kg) for 3 consecutive days after injury. […] Scale bar: 100 μm. Mean±SEM; *P<0.05, Student's t-test.
(§2) In the current project, a sciatic nerve crush injury was used as an in vivo animal model for peripheral nerve injury. Adult male C57BL/6 mice (8-12 weeks old) were used for all experiments. All mouse husbandry and euthanasia were in compliance with the Institutional Animal Care and Use Committee (IACUC) guidelines. Surgical procedures performed were in accordance with protocols approved by the City University of Hong Kong Animal Research Ethics Sub-Committee and Department of Health, Hong Kong SAR. Under anesthesia, the left sciatic nerve was exposed, and crushed with 5/45 smooth forceps (Fine Science Tools) for 15 seconds at the level of external rotator muscles, distal to the sciatic notch after separation from the surrounding connective tissue (FIG. 2).
(§3) Glycopyrrolate or mexiletine was first dissolved in 0.9% saline, and injected intraperitoneally immediately after sciatic nerve crush injury for 3 consecutive days at 2 mg/kg and 10 mg/kg, respectively (FIGS. 3A and B).
(§4) The extent of axon regeneration was evaluated using sciatic nerve pinch test, and verified by quantifications of GAP-43-positive regenerating axonal fibres 72 hours after sciatic nerve crush injury.
Sciatic nerve pinch test was performed on the ipsilateral nerves 72 hours after sciatic nerve crush injury. The left sciatic nerve was first exposed to mid-thigh level under deep anaesthesia (i.e. 2.5% isoflurane). Under light anaesthesia (i.e. 1% isoflurane), a series of pinches were applied from the most distal part of the nerve (i.e. trifurcation), moving proximally towards the crushed site using smooth forceps (Fine Science Tools). The distance (in mm) representing the extent of axonal regrowth was recorded from the crushed site to the most distal point of the nerve where initial withdrawal response was observed after pinching (FIGS. 4A and C).

[3] = system: sciatic nerve crush injury; conditions: 72 hours after crush; for increase in number of GAP43-positive regenerating axons: i.p. glycopyrrolate 2 mg/kg or mexiletine 10 mg/kg for 3 days, 4 mm distal to the crushed site, n=3 per group; for GAP-43-positive regenerating axonal fibres at 4 mm distal to the crushed site, in words: i.p. glycopyrrolate 2 mg/kg or mexiletine 10 mg/kg
Method: as §1, §2, §3, §4

[4] = system: M1-M3 mAChRs; conditions: background description of the drug; cited from earlier work

SMILES | average total neurite length (neurite outgrowth) [1] | cell survival of DRG neurons [1] | increase of the most distal axonal regrowth (sciatic nerve pinch test) [2] [%] | in vivo axon regeneration after sciatic nerve crush injury (pinch test), in words [2] | increase in number of GAP43-positive regenerating axons [3] [%] | GAP-43-positive regenerating axonal fibres at 4 mm distal to the crushed site, in words [3] | selectivity among mAChR subtypes [4]
C[N+]1(C)CCC(OC(=O)C(O)(c2ccccc2)C2CCCC2)C1 (stereo not shown) [glycopyrrolate] | induced robust neurite extension; also recorded: induce substantial neurite outgrowth | did not exhibit any effects on cell survival; also recorded: without exerting any neuronal survival effects | 61 | markedly accelerated in vivo axon regeneration; also recorded: significantly enhanced axon regeneration | 73 | More GAP-43-positive regenerating axonal fiber were observed | no selectivity to M1-M3 mAChRs
Cc1cccc(C)c1OCC(C)N (stereo not shown) [mexiletine] | induced robust neurite extension; also recorded: induce substantial neurite outgrowth | did not exhibit any effects on cell survival; also recorded: without exerting any neuronal survival effects | 59 | markedly accelerated in vivo axon regeneration; also recorded: significantly enhanced axon regeneration | 67 | More GAP-43-positive regenerating axonal fiber were observed | –
